Values belong to the molecule of their own block, whether it stands above or below them.
Tests used:
[1] = molecular target: T1, Orexin receptor type 2 (Homo sapiens, UniProt O43614); assay: Binding affinity to human OX2 receptor
T1 sequence (O43614 whole entry): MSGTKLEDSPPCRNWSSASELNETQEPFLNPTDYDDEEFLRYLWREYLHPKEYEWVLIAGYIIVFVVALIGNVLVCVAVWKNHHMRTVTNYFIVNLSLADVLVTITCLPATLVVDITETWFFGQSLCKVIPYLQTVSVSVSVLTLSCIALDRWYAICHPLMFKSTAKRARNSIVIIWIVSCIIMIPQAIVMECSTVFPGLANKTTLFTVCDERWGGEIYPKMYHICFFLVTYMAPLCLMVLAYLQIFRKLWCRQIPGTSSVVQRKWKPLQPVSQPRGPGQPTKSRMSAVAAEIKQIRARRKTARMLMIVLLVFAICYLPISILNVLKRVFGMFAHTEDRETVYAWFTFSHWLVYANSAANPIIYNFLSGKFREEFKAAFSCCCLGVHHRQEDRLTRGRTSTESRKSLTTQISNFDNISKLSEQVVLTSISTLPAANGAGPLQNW

[2] = molecular target: T2, Orexin/Hypocretin receptor type 1 (Homo sapiens, UniProt O43613); assay: Binding affinity to human OX1 receptor
T2 sequence (O43613 whole entry): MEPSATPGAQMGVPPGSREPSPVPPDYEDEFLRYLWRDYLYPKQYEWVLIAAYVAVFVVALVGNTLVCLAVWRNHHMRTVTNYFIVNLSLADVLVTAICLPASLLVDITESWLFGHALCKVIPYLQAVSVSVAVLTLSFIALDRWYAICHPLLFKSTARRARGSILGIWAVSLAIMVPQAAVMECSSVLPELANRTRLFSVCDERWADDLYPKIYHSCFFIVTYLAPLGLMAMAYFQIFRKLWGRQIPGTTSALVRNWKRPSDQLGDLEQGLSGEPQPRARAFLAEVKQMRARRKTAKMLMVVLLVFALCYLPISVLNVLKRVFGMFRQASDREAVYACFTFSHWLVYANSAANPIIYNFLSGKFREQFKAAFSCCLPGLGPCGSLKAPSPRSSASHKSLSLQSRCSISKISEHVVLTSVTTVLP

[3] = Apparent permeability from basolateral to apical side in human Caco2/TC7 cells at 10 uM; settings: Caco-2
[4] = Half life in Sprague-Dawley rat at 1 mg/kg, iv; assay type: ADME, organism-based; settings: in vivo
[5] = molecular target: T3, Orexin receptor type 2 (Rattus norvegicus, UniProt P56719); assay: Binding affinity to rat OX2 receptor
T3 sequence (P56719 whole entry): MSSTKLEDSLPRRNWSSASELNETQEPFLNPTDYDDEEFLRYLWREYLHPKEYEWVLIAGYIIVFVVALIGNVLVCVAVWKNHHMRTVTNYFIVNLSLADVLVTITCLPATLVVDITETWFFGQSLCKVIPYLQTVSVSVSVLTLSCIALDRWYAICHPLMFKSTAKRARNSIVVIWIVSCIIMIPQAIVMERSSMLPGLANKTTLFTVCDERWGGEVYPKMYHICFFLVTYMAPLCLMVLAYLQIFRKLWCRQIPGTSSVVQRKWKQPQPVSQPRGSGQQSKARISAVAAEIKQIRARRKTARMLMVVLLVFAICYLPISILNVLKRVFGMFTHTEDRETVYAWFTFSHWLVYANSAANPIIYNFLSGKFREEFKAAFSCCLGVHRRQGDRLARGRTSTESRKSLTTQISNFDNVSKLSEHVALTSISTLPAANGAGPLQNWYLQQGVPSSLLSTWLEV

[6] = molecular target: Voltage-gated inwardly rectifying potassium channel KCNH2 (Homo sapiens, UniProt Q12809); assay: Inhibition of [3H]-astemizole binding to human ERG expressed in HEK293 cells
Chain of Voltage-gated inwardly rectifying potassium channel KCNH2 (Q12809 whole entry): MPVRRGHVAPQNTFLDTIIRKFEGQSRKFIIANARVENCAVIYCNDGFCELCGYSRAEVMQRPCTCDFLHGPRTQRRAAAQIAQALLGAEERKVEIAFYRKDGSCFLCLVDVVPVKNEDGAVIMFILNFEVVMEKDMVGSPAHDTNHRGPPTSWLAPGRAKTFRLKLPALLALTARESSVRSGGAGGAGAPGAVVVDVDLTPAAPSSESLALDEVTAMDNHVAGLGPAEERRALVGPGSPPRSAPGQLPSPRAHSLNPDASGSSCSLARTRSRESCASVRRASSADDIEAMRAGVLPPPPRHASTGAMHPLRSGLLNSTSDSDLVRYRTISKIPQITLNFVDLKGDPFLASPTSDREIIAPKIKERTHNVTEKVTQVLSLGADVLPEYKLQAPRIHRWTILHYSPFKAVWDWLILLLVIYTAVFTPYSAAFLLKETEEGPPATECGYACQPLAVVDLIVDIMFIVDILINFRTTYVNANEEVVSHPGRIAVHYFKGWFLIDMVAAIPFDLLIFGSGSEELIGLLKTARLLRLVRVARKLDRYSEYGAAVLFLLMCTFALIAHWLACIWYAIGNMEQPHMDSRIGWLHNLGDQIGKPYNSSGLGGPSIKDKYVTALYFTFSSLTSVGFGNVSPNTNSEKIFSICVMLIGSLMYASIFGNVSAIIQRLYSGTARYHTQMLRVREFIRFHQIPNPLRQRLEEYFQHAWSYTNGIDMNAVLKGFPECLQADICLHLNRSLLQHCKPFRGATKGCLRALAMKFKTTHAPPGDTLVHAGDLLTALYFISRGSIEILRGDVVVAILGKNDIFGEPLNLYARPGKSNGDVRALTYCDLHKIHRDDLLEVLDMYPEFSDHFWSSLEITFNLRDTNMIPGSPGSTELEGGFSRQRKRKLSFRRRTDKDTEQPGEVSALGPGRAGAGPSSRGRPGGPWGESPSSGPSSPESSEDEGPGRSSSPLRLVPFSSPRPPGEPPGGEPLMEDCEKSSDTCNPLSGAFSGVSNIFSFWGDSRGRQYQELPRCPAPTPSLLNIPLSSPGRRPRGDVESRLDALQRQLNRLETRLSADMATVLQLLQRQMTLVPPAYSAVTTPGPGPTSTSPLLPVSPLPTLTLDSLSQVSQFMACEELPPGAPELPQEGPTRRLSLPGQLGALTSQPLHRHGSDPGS

[7] = tested on: Rattus norvegicus; assay: Ex vivo OX2 receptor occupancy in Sprague-Dawley rat brain at 30 mg/kg, po after 30 mins by autoradiographic analysis; assay type: functional
[8] = Apparent permeability from apical to basolateral side in human Caco2/TC7 cells at 10 uM; settings: Caco-2
[9] = Plasma protein binding in human at 1 uM after 6 hrs by equilibrium dialysis method; assay type: ADME, cell-free; settings: read-out: PPB (converted)
[10] = molecular target: T4, Cytochrome P450 1A2 (Homo sapiens, UniProt P05177); assay: Inhibition of CYP1A2 in human liver microsomes using phenacetin as substrate by LC-MS/MS analysis
T4 sequence (P05177 whole entry): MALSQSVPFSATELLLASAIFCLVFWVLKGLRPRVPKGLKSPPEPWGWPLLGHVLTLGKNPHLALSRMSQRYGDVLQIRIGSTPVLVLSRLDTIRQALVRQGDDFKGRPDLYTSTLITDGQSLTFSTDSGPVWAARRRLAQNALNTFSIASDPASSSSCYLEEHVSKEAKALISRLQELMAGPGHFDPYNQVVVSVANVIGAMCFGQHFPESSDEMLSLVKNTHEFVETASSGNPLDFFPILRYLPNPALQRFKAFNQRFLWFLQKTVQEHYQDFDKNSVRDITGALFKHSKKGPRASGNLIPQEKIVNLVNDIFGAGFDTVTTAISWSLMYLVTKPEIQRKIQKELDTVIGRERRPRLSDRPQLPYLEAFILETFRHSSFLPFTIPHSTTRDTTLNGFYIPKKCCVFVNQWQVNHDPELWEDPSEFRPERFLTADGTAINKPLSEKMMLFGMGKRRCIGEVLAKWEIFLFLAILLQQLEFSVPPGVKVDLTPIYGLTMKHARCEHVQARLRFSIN

[11] = Oral bioavailability in Sprague-Dawley rat at 10 mg/kg; assay type: ADME, organism-based; settings: in vivo
[12] = Clearance in Sprague-Dawley rat at 10 mg/kg, po and 1 mg/kg, iv; assay type: ADME, organism-based; settings: in vivo
[13] = Plasma protein binding in rat at 1 uM after 6 hrs by equilibrium dialysis method; assay type: ADME, cell-free; settings: read-out: PPB (converted)
[14] = Volume of distribution at steady state in Sprague-Dawley rat at 10 mg/kg, po and 1 mg/kg, iv; assay type: ADME, organism-based; settings: in vivo, read-out: Vdss
[15] = Protein binding in rat brain at 5 uM after 5 hrs by equilibrium dialysis method; assay type: ADME, tissue-based; settings: read-out: PB (converted)
[16] = tested on: Rattus norvegicus; assay: Ex vivo OX2 receptor occupancy in Sprague-Dawley rat brain at 30 mg/kg, po after 15 mins by autoradiographic analysis; assay type: functional
[17] = Cmax in Sprague-Dawley rat at 10 mg/kg, po; assay type: ADME, organism-based; design: dose 10 mg/kg, route oral; settings: in vivo
[18] = tested on: Rattus norvegicus; assay: Ex vivo OX2 receptor occupancy in Sprague-Dawley rat brain at 10 mg/kg, po after 30 mins by autoradiographic analysis; assay type: functional
[19] = Metabolic stability in rat liver microsomes assessed as extraction ratio at 1 uM measured over 1 hr by LC-MS/MS analysis
[20] = Metabolic stability in human liver microsomes assessed as extraction ratio at 1 uM measured over 1 hr by LC-MS/MS analysis

Ki [1]: 421 nM
Ki [2]: 765 nM
Compound: O=C(c1ccccc1-c1ccccc1)N1C[C@@H]2CN(c3nccc(-c4ccccc4)n3)C[C@@H]2C1

Ki [1]: 51 nM
Ki [2]: 1800 nM
Compound: Cc1cc(C)nc(N2C[C@H]3CN(C(=O)c4c(C)ccc5ccccc45)C[C@H]3C2)n1

Ki [1]: 746 nM
Ki [2]: > 10000 nM
Compound: COc1ccc(C(=O)N2C[C@@H]3CN(c4nc5ccc(F)cc5s4)C[C@@H]3C2)c(OC)c1

Papp B→A at 10 µM [3]: 26.8 ×10⁻⁶ cm/s
half-life [4]: 22.2 min
Ki [5]: 14 nM
Papp A→B at 10 µM [8]: 58.1 ×10⁻⁶ cm/s
fraction unbound at 6 h, 1 µM [9]: 0.075
IC50 [10]: 9.3 µM
bioavailability [11]: 18%
clearance [12]: 65.5 mL/min/kg
fraction unbound at 6 h, 1 µM [13]: 0.116
Vd [14]: 1.5 L/kg
Compound: Cc1cc(C)nc(N2C[C@H]3CN(C(=O)c4ccc(F)cc4-n4nccn4)C[C@H]3C2)n1
IC50 [6]: > 10 µM
Occ [7]: 72%

Papp B→A at 10 µM [3]: 49.7 ×10⁻⁶ cm/s
half-life [4]: 12 min
Papp A→B at 10 µM [8]: 62.3 ×10⁻⁶ cm/s
fraction unbound at 6 h, 1 µM [9]: 0.095
fraction unbound at 5 h, 5 µM [15]: 0.156
IC50 [10]: 3.1 µM
bioavailability [11]: 21%
clearance [12]: 57 mL/min/kg
fraction unbound at 6 h, 1 µM [13]: 0.273
Vd [14]: 0.7 L/kg
Compound: Cc1cc(C)nc(N2C[C@H]3CN(C(=O)c4cccc(F)c4-n4nccn4)C[C@H]3C2)n1
IC50 [6]: 6 µM
Occ [16]: 49%

Ki [1]: 240 nM
Ki [2]: 1320 nM
Compound: O=C(c1ccccc1-c1ccccc1)N1C[C@@H]2CN(c3cnc4ccccc4n3)C[C@@H]2C1

half-life [4]: 16.2 min
Ki [5]: 2 nM
Cmax [17]: 148 ng/mL
bioavailability [11]: 8%
clearance [12]: 52.1 mL/min/kg
Vd [14]: 0.7 L/kg
Compound: Cc1cc(C)nc(N2C[C@H]3CN(C(=O)c4ccccc4-n4nccn4)C[C@H]3C2)n1
IC50 [6]: > 10 µM
Occ [7]: 67%

Ki [1]: 106 nM
Ki [2]: 623 nM
Compound: O=C(c1ccccc1-c1cccs1)N1C[C@@H]2CN(c3cnc4ccccc4n3)C[C@@H]2C1

Ki [1]: 180 nM
Ki [2]: > 10000 nM
Compound: Cc1cc(C)nc(N2C[C@H]3CN(C(=O)c4ccccc4-c4cccc(F)c4)C[C@H]3C2)n1

Ki [1]: 510 nM
Ki [2]: 5300 nM
Compound: COc1ccc(C(=O)N2C[C@@H]3CN(c4nc5ccc(Cl)cc5s4)C[C@@H]3C2)c(OC)c1

Ki [5]: 7 nM
Ki [1]: 9.8 nM
Ki [2]: 471 nM
Compound: Cc1cc(C)nc(N2C[C@H]3CN(C(=O)c4ccccc4-c4cccs4)C[C@H]3C2)n1
Occ [18]: 26%

Compound: Cc1cc(C)nc(N2C[C@H]3CN(C(=O)c4cc(F)ccc4-n4nccn4)C[C@H]3C2)n1
IC50 [6]: > 10 µM

half-life [4]: 22.8 min
Ki [5]: 39 nM
Ki [1]: 30 nM
hepatic extraction ratio at 1 h, 1 µM [19]: 0.51
Ki [2]: 3650 nM
bioavailability [11]: 22%
clearance [12]: 150 mL/min/kg
Vd [14]: 3.9 L/kg
hepatic extraction ratio at 1 h, 1 µM [20]: 0.73
Compound: Cc1cc(C)nc(N2C[C@H]3CN(C(=O)c4ccccc4-c4ncn[nH]4)C[C@H]3C2)n1
IC50 [6]: > 10 µM
Occ [16]: 0%

Ki [5]: 38 nM
Compound: COc1ccc(-n2nccn2)c(C(=O)N2C[C@@H]3CN(c4nc(C)cc(C)n4)C[C@@H]3C2)c1
IC50 [6]: 8.1 µM

Ki [1]: 137 nM
Ki [2]: 267 nM
Compound: O=C(c1ccccc1-c1cccs1)N1C[C@@H]2CN(c3nc4ccc(F)cc4s3)C[C@@H]2C1

Ki [5]: 12 nM
Compound: Cc1cc(C)nc(N2C[C@H]3CN(C(=O)c4c(C)cccc4-n4nccn4)C[C@H]3C2)n1
IC50 [6]: 6.9 µM

Ki [1]: 27 nM
Ki [2]: 557 nM
Compound: CCOc1ccc2ccccc2c1C(=O)N1C[C@@H]2CN(c3nc(C)cc(C)n3)C[C@@H]2C1

Ki [1]: 768 nM
Ki [2]: > 10000 nM
Compound: O=C(c1ccccc1-n1cccn1)N1C[C@@H]2CN(c3cnc4ccccc4n3)C[C@@H]2C1

Ki [1]: 875 nM
Ki [2]: > 10000 nM
Compound: COc1ccc(C(=O)N2C[C@@H]3CN(c4nc5ccc(OC)cc5s4)C[C@@H]3C2)c(OC)c1

Ki [1]: 687 nM
Ki [2]: 1400 nM
Compound: O=C(c1ccccc1-c1ccccc1)N1C[C@@H]2CN(c3nc4ccccc4s3)C[C@@H]2C1

Ki [1]: 294 nM
Ki [2]: 925 nM
Compound: O=C(c1ccccc1-c1ccccc1)N1C[C@@H]2CN(c3nc4ccc(F)cc4s3)C[C@@H]2C1

Ki [1]: 899 nM
Ki [2]: > 10000 nM
Compound: Cc1ccnc(N2C[C@H]3CN(C(=O)c4ccccc4-c4ccccc4)C[C@H]3C2)n1

Ki [1]: 680 nM
Ki [2]: > 10000 nM
Compound: COc1ccc(C(=O)N2C[C@@H]3CN(c4nc5ccc(C)cc5s4)C[C@@H]3C2)c(OC)c1

Ki [1]: 41 nM
Ki [2]: 257 nM
Compound: COc1cc(OC)nc(N2C[C@H]3CN(C(=O)c4ccccc4-c4cccs4)C[C@H]3C2)n1

Ki [1]: 141 nM
Ki [2]: 3300 nM
Compound: COc1ccnc(N2C[C@H]3CN(C(=O)c4c(C)ccc5ccccc45)C[C@H]3C2)n1
